System: C28/I2 cells
Assay: CXXC5/β-catenin expression and chondrogenic markers in C28/I2 cells
Format: cell-based, human
Description: Figure 2. The effects of estrogen on CXXC5 expression and the mediation of growth plate senescence. (A) Immunoblotting (upper) and quantitative analyses (mean ± SEM, n = 3) (lower) in C28/I2 cells treated with 100 nM E2 (17β-estradiol) for 0, 1, 3, 6, 24, 48, or 72 h. (B) Immunocytochemical staining (left) and quantitative analyses of the fluorescent intensity (mean ± SEM, n = 3; t test, **P < 0.005 and ***P < 0.0005) (right) in C28/I2 cells treated with 100 nM E2 for 40 h. Scale bars, 100 μm. (C–E) Tibial organ cultures (E15.5) incubated with 100 nM E2 for 6 d. Representative images at 6 d (C, left) and quantitative analyses of the growth changes (mean ± SEM, n = 5; t test, ***P < 0.0005) (C, right). Scale bar, 1 mm. H&E staining (D, left) and quantification of each zone height (mean ± SEM, n = 5; t test, *P < 0.05 and **P < 0.005) (D, right) in the growth plate. Scale bar, 200 μm. IHC analyses of β-catenin and CXXC5 (E). Scale bars, 50 μm. (F) 3-wk-old Cxxc5^+/+ and Cxxc5^−/− mice were treated with E2 cypionate (70 μg/kg) by i.m. injection once a week for 3 wk (n = 3–4). Representative images of H&E staining and IHC analyses for BrdU, β-catenin, and CXXC5 in the growth plates of proximal tibiae are shown. The area within the dashed lines indicates the growth plate zone. Black and white scale bars, 50 μm. Yellow scale bar, 20 μm. RZ, resting zone; PZ, proliferative zone; HZ, hypertrophic zone.
Figure S7. The effects of KY19382 on chondrocyte proliferation and differentiation. (A) ATDC5 cells treated with 0.01 or 0.1 μM concentrations of KY19382 were incubated for 48 h followed by treatment with 50 μM BrdU for 12 h before harvesting. BrdU incorporation was visualized by immunofluorescent staining using a specific BrdU antibody (left). BrdU-positive cells were quantified (mean ± SEM, n = 3; ANOVA, P = 7.8 × 10^−5; Tukey’s post-hoc test, *P < 0.05 and ***P < 0.0005) (right). Scale bar, 100 μm. (B) qRT-PCR analyses of mRNA levels of chondrogenic differentiation markers in ATDC5 cells incubated with 0.1 μM KY19382 for 3 d in three-dimensional alginate beads after transfection with control siRNA or Ctnnb1 siRNA (mean ± SEM, n = 3; t test, *P < 0.05, **P < 0.005, and ***P < 0.0005). (C) qRT-PCR analyses of mRNA levels of chondrogenic differentiation markers in C28/I2 cells incubated with 1 μM KY19382 for 3 d in three-dimensional alginate beads (mean ± SEM, n = 3; t test, *P < 0.05 and ***P < 0.0005). n.s., no significance.
The mouse chondrogenic cell line, ATDC5, was obtained from the RIKEN Cell Bank. The human juvenile costal chondrocyte cell line, C28/I2, was provided by Dr. W U Kim (Catholic University, Korea). HEK293-TOP cells (HEK293 cells containing the chromosomally incorporated TOPFlash gene) were provided by Dr. S Oh (Kuk Min University, Korea). […]

C[C@]12CC[C@@H]3c4ccc(O)cc4CC[C@H]3[C@@H]1CC[C@@H]2O [E2, 17β-estradiol] was tested, and the “time of maximal CXXC5 level” value (100 nM) was 24 h, the CXXC5 expression (100 nM, 0-72 h) was “induced” and the β-catenin level (100 nM, after 24 h) was “reduced”.
In the case of CON=C1C(=C2C(=O)Nc3cc(Cl)c(Cl)cc32)Nc2ccccc21 [KY19382, 5,6-dichloroindirubin-3′-methoxime], the “mRNA levels of chondrogenic markers” value (1 μM, 3 d, alginate beads) is reported as “up-regulated”.

— paper PMC6458850, “CXXC5 mediates growth plate senescence and is a target for enhancement of longitudinal bone growth” (Life Science Alliance, 2019)
